Experimental data as given in US11725015B2, “Macrocyclic compound and uses thereof” (President and Fellows of Harvard College, priority 2017, dated 2023).

Columns and labels:
[1] = tested on: HEC-108 (human endometrial cancer) xenograft; assay: Antitumor effects in HEC-108 endometrial cancer xenograft model in mice as monotherapy; assay type: in vivo; conditions: 180 μg/kg intravenously on Day 1 and Day 8
Experimental: A human endometrial cancer cell line HEC-108, which had been cultured in an E-MEM containing 15% FBS and antibiotics were adjusted to a concentration of 7.14×10^7 cells/mL with medium to prepare a cell suspension. The cell suspension was inoculated in a volume of 150 μL into a subcutaneous part of a right flank of athymic mice (CAnN.Cg-Foxnlnu/CrlCrlj, female, 6 weeks old, Charles River Japan Inc.). Thirteen days after cell inoculation (Day 1), the length and the width of a tumor in each mouse were measured by using an electronic digital caliper (Mitutoyo Corporation), so as to calculate the volume of the tumor in accordance with the following calculation formula: Tumor volume (mm^3)=Longest diameter (mm)×Shortest diameter (mm)×Shortest diameter (mm)/2 Relative tumor volume (RTV)=Tumor volume (day X)/Tumor volume (the first day)
On the basis of TV, the mice were randomly grouped (Day 1). Each group was consisted in six mice. Compound (1) was dissolved in DMSO and a solution was stored in the freezer before use. Compound (1) (180 μg/kg) was diluted in saline and intravenously injected on Day 1 and Day 8.

[2] = tested on: TE-8 (human squamous cell carcinoma of the esophagus); assay: In vitro antiproliferative activity, TE-8; assay type: cell-based; conditions: TE-8, 72 hours
Experimental: The in vitro antiproliferative assays for Compound (1) were conducted using a small panel of cancer cell lines including human squamous cell carcinoma of the esophagus (OE21, TE-8), human adenocarcinoma of the esophagus (OE33), and human uterine sarcoma (MES-SA, MES-SA-Dx5-Rx1). All cell lines were cultured in RPMI-1640 medium containing 10% FBS, and penicillin-streptomycin (culture medium), in a 5% CO2 incubator (37° C.). To each well of a 96 well plate (Becton, Dickinson and Company, 353219), 75 μL of cell suspension adjusted to a concentration of 4×10^4 cells/mL with the culture medium was added, and the cells were incubated overnight in a 5% CO2 incubator (37° C.). On the next day, 25 μL of Compound (1) in three-fold dilution series suspended in the culture medium was added to each well, and the resultant was incubated for 72 hours in a 5% CO2 incubator (37° C.). Then, cell viability was determined by CellTiter-Glo® Luminescent Cell Viability Assay (Promega) with 2013 EnVision™ Multilabel Reader (Perkin-Elmer, Wellesley, Mass.). Value of the wells containing cells without adding the test compounds was defined as 100% and the value of the wells containing no cells was defined as 0%. […] The P-gp susceptibility was calculated as the ratio of the IC50 value in MES-SA-Dx5-Rx1 cells, which overexpress P-gp, to the IC50 value in MES-SA cells.

[3] = tested on: CT26 subcutaneous syngeneic model; assay: Antitumor activity in CT26 subcutaneous syngeneic model in combination with anti-mPD-1 antibody in mice; assay type: in vivo
Experimental: A murine undifferentiated colon carcinoma cell line CT26, which had been cultured in an RPMI-1640 medium containing 10% FBS, and penicillin and streptomycin, was adjusted to a concentration of 2×10^7 cells/mL with Hank's Balanced Salt Solution to prepare a cell suspension. On day 1, the cell suspension was inoculated in a volume of 100 μL into a subcutaneous part of a right flank of BALB/c mice, 6 weeks of ages (BALB/cAnNCrlCrlj, female, Charles River Laboratories Japan, Inc.). Two days after the cell inoculation, the mice were randomly divided into four groups and each group consists of 8 mice. The shortest diameter and the longest diameter of a tumor in each mouse were measured by using an electronic digital caliper (Digimatic™ caliper, Mitutoyo Corporation), so as to calculate the volume of the tumor in accordance with the following calculation formula: Tumor volume (mm^3)=Longest diameter (mm)×Shortest diameter (mm)×Shortest diameter (mm)/2 T/C=(mean tumor volume of treated group)/(mean tumor volume of control group) Inhibition of tumor growth (%)=(1−T/C)×100
The test compound was intravenously administered at 0.09 mg/kg on days 3 and 11. Anti-mPD-1 antibody (BE0146, Bio X Cell) was intravenously administered at 10 mg/kg on days 3, 7, 11, and 15.

[4] = tested on: CD31-positive vessel in the FaDu subcutaneous model; assay: Effect on CD31-positive vessel in the FaDu subcutaneous model in mice (Test Example 18); assay type: in vivo; conditions: five days after
Experimental: A human squamous cell carcinoma of the head and neck (SCCHN) cell line FaDu, which had been cultured in an RPMI-1640 medium containing 10% FBS, and penicillin-streptomycin (culture medium), was adjusted to a concentration of 5×10^7 cells/mL with culture medium to prepare a cell suspension. The cell suspension was inoculated in a volume of 100 μL into a subcutaneous part of a right flank of nude mice, 6 weeks of ages (CAnN.Cg-Foxnlnu/CrlCrlj, female, Charles River Laboratories Japan, Inc.). Ten days after cell inoculation, the mice were grouped such that averages of the tumor volumes were substantially equal among the groups. The experiment was conducted on groups each consisting of 6 mice. Each test compound was dissolved in DMSO and a solution was stored in the freezer before use. Immediately before the administration, the stock solution was diluted with saline. The test compound in saline was intravenously administered at 20 μg/kg, […]. Five days after the single administration, tumor samples were collected and fixed with IHC Zinc Fixative (BD Pharmingen) at 4° C. for 24 hours. Paraffin-embedded tissues were sectioned (3 μm), mounted on positively charged slides, and air-dried. Immunohistochemical staining of CD31 was conducted using Ventana autostainer model Discover XT (Roche Diagnostics) according to the manufacture's protocol. Sections were deparaffinized, conditioned and the antigens were retrieved with CC1 (Ventana Medical Systems). […] The number of blood vessels in the whole tumor was quantified by counting the CD31-positive objects using inform 2 software (PerkinElmer Inc.) Area of the tumor region was measured by assessing the hematoxylin-staining area using inform 2 software (PerkinElmer Inc.) The number of blood vessels was normalized by the area of the tumor region. […] The ratios of blood vessel number in the test compound-dosing groups compared to non-treat group were calculated with the below formula: Tumor vessel ratio=blood vessel number of the test compound-dosing group/blood vessel number of the non-treat group)

C=C1C[C@@H]2CC[C@@]34C[C@H]5O[C@H]6[C@@H](O3)[C@H]3O[C@H](CC[C@@H]3O[C@H]6C5O4)CC(=O)O[C@@H]3[C@@H](C)[C@@H]4O[C@@H]5C[C@]6(C[C@@H]7O[C@]8(C[C@H](C)[C@@H]9O[C@H](CN)[C@H](O)C[C@@H]9O8)C[C@H](C)[C@@H]7O6)O[C@@H]5C[C@@H]4O[C@H]3C[C@H]3O[C@@H](CC[C@@H]1O2)C[C@@H](C)C3=C [Compound (1)]
antitumor activity [1]: tumor growth delay | antiproliferative activity [2]: potent antiproliferative agent | Inhibition of tumor growth on day 15 (%) ([3]; 0.09 mg/kg intravenously + anti-mPD-1 antibody 10 mg/kg): 62% | Inhibition of tumor growth on day 15 (%) ([3]; 0.09 mg/kg intravenously on days 3 and 11, without antibody): 30% | tumor blood vessel number ([4]; single administration 20 μg/kg): increased the tumor blood vessel number | tumor blood vessel number ([4]; single administration 60 μg/kg): increased the tumor blood vessel number | tumor blood vessel number ([4]; single administration 180 μg/kg): increased the tumor blood vessel number
